Measurements as given in patent US20060069132A1, “Azolecarboxamide herbicides” (priority 2004, published 2006).

How the values were obtained:
[1] = system: redroot pigweed; assay: Test A pre-/postemergence herbicide test; format: in vivo, Amaranthus retroflexus
In short: (§1)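 Seeds sown in sandy loam received a preemergence directed soil spray of compound in non-phytotoxic solvent with surfactant; postemergence plants (2–10 cm, one- to two-leaf stage) were sprayed to runoff at the same time. After ~10 days in greenhouse, injury was rated visually versus untreated controls (0 = no effect, 100 = complete control).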

[2] = system: johnsongrass; assay: Test C pre-/postemergence herbicide test; format: in vivo, Sorghum halepense
In short: (§2)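 Seeds were planted and sprayed preemergence with test chemicals in a non-phytotoxic solvent mixture containing surfactant; postemergence treatments went onto plants 2 to 18 cm tall (1- to 4-leaf stage). After 12 to 14 days in a greenhouse, injury was rated visually against untreated controls on a 0–100 scale.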

[3] = system: cocklebur; assay: Test C pre-/postemergence herbicide test; format: in vivo, Xanthium strumarium; details: for Cocklebur plant response rating: 500 g ai/ha
In short: as §2

[4] = system: velvetleaf; assay: Test A pre-/postemergence herbicide test; format: in vivo, Abutilon theophrasti
In short: as §1

[5] = system: ducksalad; assay: Test C flooded paddy test; format: in vivo, Heteranthera limosa; details: for Plant response rating, Ducksalad: 500 g ai/ha, visual rating after 12 to 14 days
[6] = system: yellow nutsedge; assay: Test C pre-/postemergence herbicide test; format: in vivo, Cyperus esculentus
In short: as §2

[7] = system: barnyardgrass; assay: Test C flooded paddy test; format: in vivo, Echinochloa crus-galli; details: for Plant response rating, Barnyardgrass: 500 g ai/ha, visual rating after 12 to 14 days
In short: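 Ratings (0 = no effect, 100 = complete control) come from visual comparison with untreated plants after 12 to 14 days in the greenhouse. Treatment was postemergence at the 1- to 4-leaf stage (2–18 cm), or at the 2-leaf stage for the flooded paddy barnyardgrass.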

[8] = system: barnyardgrass; assay: Test A pre-/postemergence herbicide test; format: in vivo, Echinochloa crus-galli
In short: as §1

[9] = system: Surinam grass; assay: Test C pre-/postemergence herbicide test; format: in vivo, Urochloa decumbens
In short: as §2

[10] = system: giant foxtail; assay: Test A pre-/postemergence herbicide test; format: in vivo, Setaria faberi
In short: as §1

[11] = system: morningglory; assay: Test C pre-/postemergence herbicide test; format: in vivo, Ipomoea coccinea; design: key to Plant response rating, Morningglory: 0 = no effect, 100 = complete control
In short: as §2

[12] = system: giant foxtail; assay: Test C pre-/postemergence herbicide test; format: in vivo, Setaria faberi
In short: as §2

[13] = system: eastern black nightshade; assay: Test C pre-/postemergence herbicide test; format: in vivo, Solanum ptycanthum; details: preemergence
From the text: Seeds of plant species selected from bermudagrass (Cynodon dactylon (L.) Pers.), Surinam grass (Urochloa decumbens (Staph) R. D. Webster, previously named Brachiaria decumbens Stapf), cocklebur (Xanthium strumarium L.), corn (Zea mays L.), large crabgrass (Digitaria sanguinalis (L.) Scop.), woolly cupgrass (Eriochloa villosa (Thunb.) Kunth), giant foxtail (Setaria faberi Herrm.), goosegrass (Eleusine indica (L.) Gaertn.), johnsongrass (Sorghum halepense (L.) Pers.), kochia (Kochia scoparia (L.) Schrad.), lambsquarters (Chenopodium album L.), morningglory (Ipomoea coccinea L.), eastern black nightshade (Solanum ptycanthum Dunal), yellow nutsedge (Cyperus esculentus L.), pigweed (Amaranthus retroflexus L.), common ragweed (Ambrosia elatior L.), soybean (Glycine max (L.) Merr.), common (oilseed) sunflower (Helianthus annuus L.) and velvetleaf (Abutilon theophrasti Medik.) were planted and treated preemergence with test chemicals formulated in a non-phytotoxic solvent mixture which included a surfactant.
At the same time, plants selected from these crop and weed species and also winter barley (Hordeum vulgare L.), blackgrass (Alopecurus myosuroides Huds.), canarygrass (Phalaris minor Retz.), chickweed (Stellaria media (L.) Vill.), downy bromegrass (Bromus tectorum L.), green foxtail (Setaria viridis (L.) Beauv.), Italian ryegrass (Lolium multiflorum Lam.), wheat (Triticum aestivum L.), wild oat (Avenafatua L.) and windgrass (Apera spica-venti (L.) Beauv.) were treated with postemergence applications of some of the test chemicals formulated in the same manner. Plants ranged in height from 2 to 18 cm (1- to 4-leaf stage) for postemergence treatments. Plant species in the flooded paddy test consisted of rice (Oryza sativa), smallflower umbrella sedge (Cyperus difformis L.), ducksalad (Heteranthera limosa (Sw.) Willd.) and barnyardgrass (Echinochloa crus-galli (L.) Beauv.) grown to the 2-leaf stage for testing. Treated plants and controls were maintained in a greenhouse for 12 to 14 days, after which time all species were compared to controls and visually evaluated. Plant response ratings, summarized in Table C, are based on a scale of 0 to 100 where 0 is no effect and 100 is complete control. A dash (-) response means no test result.

[14] = Postemergence, 500 g ai/ha, 0 to 100 scale, 0 no effect, 100 complete control
[15] = Postemergence, 2000 g ai/ha, 0 to 100 scale, 0 no effect, 100 complete control
[16] = Preemergence, 2000 g ai/ha, visual rating, 0 to 100 scale (0 no effect, 100 complete control)
[17] = preemergence, 500 g ai/ha, visual injury, 0 to 100 scale (0 no effect, 100 complete control)
[18] = Postemergence, 500 g ai/ha, scale 0 to 100
[19] = Postemergence, 250 g ai/ha, scale 0 to 100, 0 no effect, 100 complete control
[20] = postemergence, 125 g ai/ha, scale 0 to 100
[21] = postemergence, 62 g ai/ha, scale 0 to 100
[22] = 125 g ai/ha, scale 0 to 100 (0 no effect, 100 complete control)
[23] = 250 g ai/ha, scale of 0 to 100, 0 is no effect, 100 is complete control
[24] = scale 0 to 100 (0 no effect, 100 complete control)
[25] = 62 g ai/ha, scale 0 to 100 (0 no effect, 100 complete control)
[26] = 62 g ai/ha, preemergence, scale 0 to 100
[27] = 125 g ai/ha, scale 0 (no effect) to 100 (complete control), visual, 12 to 14 days, preemergence
[28] = 250 g ai/ha, scale 0-100, preemergence
[29] = 500 g ai/ha, scale 0 to 100 (0 no effect, 100 complete control), visual, 12 to 14 days, preemergence

## CCn1nc(C(C)(C)C)cc1C(=O)Nc1cccc(OC(F)(F)F)c1 [Compound 272]
[1]; [14]
  Pigweed plant response rating: 100
[1]; [15]
  Plant response rating, Pigweed: 100
[1]; [16]
  Pigweed plant response rating: 100
[1]; [17]
  Pigweed plant response rating: 100
[2]; [18]
  Johnsongrass plant response rating: 55
[2]; [19]
  Plant response rating, Johnsongrass: 45
[2]; [20]
  Plant response rating, Johnsongrass: 40
[2]; [21]
  Plant response rating, Johnsongrass: 10
[3]; Postemergence, scale 0 to 100
  Cocklebur plant response rating: 95
[3]; [19]
  Plant response rating, Cocklebur: 60
[3]; [20]
  Plant response rating, Cocklebur: 60
[3]; [21]
  Plant response rating, Cocklebur: 15
[4]; [14]
  Velvetleaf plant response rating: 100
[4]; [15]
  Plant response rating, Velvetleaf: 100
[4]; [16]
  Velvetleaf plant response rating: 60
[4]; [17]
  Velvetleaf plant response rating: 15
[5]; 62 g ai/ha, scale 0 to 100
  Ducksalad plant response rating: 10
[5]; [22]
  Ducksalad plant response rating: 20
[5]; [23]
  Ducksalad plant response rating: 40
[5]; [24]
  Plant response rating, Ducksalad: 85
[6]; [18]
  Nutsedge, Yellow plant response rating: 0
[6]; [19]
  Plant response rating, Nutsedge, Yellow: 0
[6]; [20]
  Plant response rating, Nutsedge, Yellow: 0
[6]; [21]
  Plant response rating, Nutsedge, Yellow: 0
[7]; [25]
  Barnyardgrass plant response rating: 0
[7]; [22]
  Barnyardgrass plant response rating: 0
[7]; [23]
  Barnyardgrass plant response rating: 10
[7]; [24]
  Plant response rating, Barnyardgrass: 30
[8]; [14]
  Barnyardgrass plant response rating: 55
[8]; [15]
  Plant response rating, Barnyardgrass: 90
[8]; [16]
  Barnyardgrass plant response rating: 100
[8]; [17]
  Barnyardgrass plant response rating: 70
[9]; [18]
  Surinam Grass plant response rating: 60
[9]; [19]
  Plant response rating, Surinam Grass: 35
[9]; [20]
  Plant response rating, Surinam Grass: 10
[9]; [21]
  Plant response rating, Surinam Grass: 5
[10]; [14]
  Foxtail, Giant plant response rating: 45
[10]; [15]
  Plant response rating, Foxtail, Giant: 95
[10]; [16]
  Foxtail, Giant plant response rating: 100
[10]; [17]
  Foxtail, Giant plant response rating: 90
[11]; [18]
  Morningglory plant response rating: 100
[11]; [19]
  Plant response rating, Morningglory: 100
[11]; [20]
  Plant response rating, Morningglory: 100
[11]; [21]
  Plant response rating, Morningglory: 80
[12]; [18]
  Foxtail, Giant plant response rating: 75
[12]; [19]
  Plant response rating, Foxtail, Giant: 60
[12]; [20]
  Plant response rating, Foxtail, Giant: 45
[12]; [21]
  Plant response rating, Foxtail, Giant: 15

## CCn1nc(C(C)(C)C)cc1C(=O)Nc1cncc(C(=O)N(C)C)n1 [Compound 287]
[13]; 62 g ai/ha, scale 0 to 100
  Plant response rating, Nightshade: 95
[13]; 125 g ai/ha, scale 0 (no effect) to 100 (complete control), visual, 12 to 14 days
  Plant response rating, Nightshade: 100
[13]; 250 g ai/ha, scale 0-100
  Plant response rating, Nightshade: 100
[13]; 500 g ai/ha, scale 0 to 100 (0 no effect, 100 complete control), visual, 12 to 14 days
  Plant response rating, Nightshade: 100
[1]; [14]
  Pigweed plant response rating: 50
[1]; [15]
  Plant response rating, Pigweed: 80
[1]; [16]
  Pigweed plant response rating: 100
[1]; [17]
  Pigweed plant response rating: 100
[2]; [26]
  Plant response rating, Johnsongrass: 55
[2]; [27]
  Plant response rating, Johnsongrass: 85
[2]; [28]
  Plant response rating, Johnsongrass: 95
[2]; [29]
  Plant response rating, Johnsongrass: 95
[3]; [26]
  Plant response rating, Cocklebur: 0
[3]; [27]
  Plant response rating, Cocklebur: 0
[3]; [28]
  Plant response rating, Cocklebur: 10
[3]; Preemergence, scale 0 to 100, 0 no effect, 100 complete control
  Cocklebur plant response rating: 60
[4]; [14]
  Velvetleaf plant response rating: 55
[4]; [15]
  Plant response rating, Velvetleaf: 65
[4]; [16]
  Velvetleaf plant response rating: 100
[4]; [17]
  Velvetleaf plant response rating: 50
[5]; 62 g ai/ha, scale 0 to 100
  Ducksalad plant response rating: 0
[5]; [22]
  Ducksalad plant response rating: 30
[5]; [23]
  Ducksalad plant response rating: 40
[5]; [24]
  Plant response rating, Ducksalad: 45
[6]; [26]
  Plant response rating, Nutsedge, Yellow: 0
[6]; [27]
  Plant response rating, Nutsedge, Yellow: 15
[6]; [28]
  Plant response rating, Nutsedge, Yellow: 60
[6]; [29]
  Plant response rating, Nutsedge, Yellow: 85
[7]; [25]
  Barnyardgrass plant response rating: 0
[7]; [22]
  Barnyardgrass plant response rating: 0
[7]; [23]
  Barnyardgrass plant response rating: 0
[7]; [24]
  Plant response rating, Barnyardgrass: 25
[8]; [14]
  Barnyardgrass plant response rating: 70
[8]; [15]
  Plant response rating, Barnyardgrass: 90
[8]; [16]
  Barnyardgrass plant response rating: 100
[8]; [17]
  Barnyardgrass plant response rating: 95
[9]; [28]
  Plant response rating, Surinam Grass: 65
[9]; [29]
  Plant response rating, Surinam Grass: 95
[10]; [14]
  Foxtail, Giant plant response rating: 40
[10]; [15]
  Plant response rating, Foxtail, Giant: 90
[10]; [16]
  Foxtail, Giant plant response rating: 100
[10]; [17]
  Foxtail, Giant plant response rating: 65
[12]; [26]
  Plant response rating, Foxtail, Giant: 0
[12]; [27]
  Plant response rating, Foxtail, Giant: 70
[12]; [28]
  Plant response rating, Foxtail, Giant: 85
[12]; [29]
  Plant response rating, Foxtail, Giant: 100
